Laboratory results from the supplement of paper PMC10307832.

Columns and labels:
Test in all cases: relative viability (nuclei count vs DMSO), 5 days (fraction); higher = more cells survive
COR-L23 = tested on: COR-L23
How it was run: (§1)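 The day after seeding in 1536-well plates, lung cancer cell lines were treated by pin tool with a single drug, or with a fixed anchor-drug dose together with five library-drug doses (not always all listed) in √10 steps. After 5 days, a combined fix-and-stain solution (final 0.05% Triton X-100, 1% formaldehyde, 1 ug/ml Hoechst) was added. Nuclei counted on 4× images gave relative viability as treated counts over vehicle counts, reported as the median of duplicate plates.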

ChaGo-K-1 = tested on: ChaGo-K-1
How it was run: as §1

EMC-BAC-2 = tested on: EMC-BAC-2
How it was run: as §1

EPLC-272H = tested on: EPLC-272H
How it was run: as §1

H3255 = tested on: H3255
How it was run: as §1

HCC-44 = tested on: HCC-44
How it was run: as §1

HCC-827 = tested on: HCC-827
How it was run: as §1

LCLC-103H = tested on: LCLC-103H
How it was run: as §1

LU99A = tested on: LU99A
How it was run: as §1

NCI-H1395 = tested on: NCI-H1395
How it was run: as §1

NCI-H1651 = tested on: NCI-H1651
How it was run: as §1

## COc1cc2nccc(Oc3ccc(NC(=O)Nc4cc(C)on4)c(Cl)c3)c2cc1OC [Tivozanib] + Cc1cc(Nc2cc(N3CCN(C)CC3)nc(Sc3ccc(NC(=O)C4CC4)cc3)n2)n[nH]1 [Tozasertib] (partner 0.1 µM)
COR-L23; first compound 0.005 µM
  relative viability: 0.172
COR-L23; first compound 0.01581 µM
  relative viability: 0.218
COR-L23; first compound 0.05 µM
  relative viability: 0.363
COR-L23; first compound 0.1581 µM
  relative viability: 0.268
COR-L23; first compound 0.5 µM
  relative viability: 0.228
ChaGo-K-1; first compound 0.005 µM
  relative viability: 0.226
ChaGo-K-1; first compound 0.01581 µM
  relative viability: 0.247
ChaGo-K-1; first compound 0.05 µM
  relative viability: 0.216
ChaGo-K-1; first compound 0.1581 µM
  relative viability: 0.256
ChaGo-K-1; first compound 0.5 µM
  relative viability: 0.186
EMC-BAC-2; first compound 0.005 µM
  relative viability: 0.255
EMC-BAC-2; first compound 0.01581 µM
  relative viability: 0.3
EMC-BAC-2; first compound 0.05 µM
  relative viability: 0.295
EMC-BAC-2; first compound 0.1581 µM
  relative viability: 0.326
EMC-BAC-2; first compound 0.5 µM
  relative viability: 0.266
EPLC-272H; first compound 0.005 µM
  relative viability: 0.195
EPLC-272H; first compound 0.01581 µM
  relative viability: 0.255
EPLC-272H; first compound 0.05 µM
  relative viability: 0.387
EPLC-272H; first compound 0.1581 µM
  relative viability: 0.224
EPLC-272H; first compound 0.5 µM
  relative viability: 0.275
H3255; first compound 0.005 µM
  relative viability: 0.745
H3255; first compound 0.01581 µM
  relative viability: 0.564
H3255; first compound 0.05 µM
  relative viability: 0.626
H3255; first compound 0.1581 µM
  relative viability: 0.804
H3255; first compound 0.5 µM
  relative viability: 0.565
HCC-44; first compound 0.005 µM
  relative viability: 0.889
HCC-44; first compound 0.01581 µM
  relative viability: 0.9
HCC-44; first compound 0.05 µM
  relative viability: 0.839
HCC-44; first compound 0.1581 µM
  relative viability: 1.04
HCC-44; first compound 0.5 µM
  relative viability: 0.773
HCC-827; first compound 0.005 µM
  relative viability: 0.429
HCC-827; first compound 0.01581 µM
  relative viability: 0.421
HCC-827; first compound 0.05 µM
  relative viability: 0.417
HCC-827; first compound 0.1581 µM
  relative viability: 0.408
HCC-827; first compound 0.5 µM
  relative viability: 0.455
LCLC-103H; first compound 0.005 µM
  relative viability: 0.525
LCLC-103H; first compound 0.01581 µM
  relative viability: 0.503
LCLC-103H; first compound 0.05 µM
  relative viability: 0.449
LCLC-103H; first compound 0.1581 µM
  relative viability: 0.51
LCLC-103H; first compound 0.5 µM
  relative viability: 0.549
LU99A; first compound 0.005 µM
  relative viability: 0.299
LU99A; first compound 0.01581 µM
  relative viability: 0.279
LU99A; first compound 0.05 µM
  relative viability: 0.307
LU99A; first compound 0.1581 µM
  relative viability: 0.275
LU99A; first compound 0.5 µM
  relative viability: 0.256
NCI-H1395; first compound 0.005 µM
  relative viability: 0.734
NCI-H1395; first compound 0.01581 µM
  relative viability: 0.738
NCI-H1395; first compound 0.05 µM
  relative viability: 0.81
NCI-H1395; first compound 0.1581 µM
  relative viability: 0.681
NCI-H1395; first compound 0.5 µM
  relative viability: 0.807
NCI-H1651; first compound 0.005 µM
  relative viability: 0.698
NCI-H1651; first compound 0.01581 µM
  relative viability: 0.768
